Experimental data taken from the supplement of paper PMC11061612.

Tests used:
NB13 (Neuroblastoma) = assay: Bliss excess, mean over the matrix (fraction); higher = more synergy
In short: (§1)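 Cell lines grown in DMEM/F12 or RPMI with 10% FBS were plated in 1536-well plates and held 24 hours at 37°C, 5% CO2 before 72 hours of exposure to two-drug dose matrices, with DMSO typically at 0.2%. CellTiter-Glo 2.0 luminescence gave viability, which was converted to inhibition. Vehicle wells were set to 0 and blank wells to 1. Combination Emax is the second-highest inhibition in the matrix, and Bliss excess is the observed combination effect minus the expected EA + EB − EA·EB, where EA and EB are the single-agent effects.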

[1] = test system: NCI-H441 (Lung Adenocarcinoma); assay: as above
In short: as §1

[2] = test system: TE-10 (Esophageal Squamous Cell Carcinoma); assay: as above
In short: as §1

[3] = test system: JHU-022 (Oral Cavity Carcinoma); assay: as above
In short: as §1

WM1552C (Melanoma) = assay: as above
In short: as §1

[4] = test system: DU-4475 (Breast Carcinoma); assay: as above
In short: as §1

[5] = test system: MDA-MB-436 (Breast Carcinoma); assay: as above
In short: as §1

769-P (Kidney Carcinoma) = assay: as above
In short: as §1

[6] = test system: LU-165 (Small Cell Lung Carcinoma); assay: as above
In short: as §1

[7] = test system: DMS-53 (Small Cell Lung Carcinoma); assay: as above
In short: as §1

[8] = test system: SW620 (Colorectal Carcinoma); assay: as above
In short: as §1

[9] = test system: TE-10 (Esophageal Squamous Cell Carcinoma); assay: combination Emax (second highest fraction inhibited in the dose matrix, 72 h); higher = more inhibition; extreme values may be limits of the assay
In short: as §1

[10] = test system: NCI-H841 (Small Cell Lung Carcinoma); assay: Bliss excess, mean over the matrix (fraction); higher = more synergy
In short: as §1

MKN1 (Gastric Carcinoma) [11] = assay: as above
In short: as §1

[12] = test system: NCI-H841 (Small Cell Lung Carcinoma); assay: combination Emax (second highest fraction inhibited in the dose matrix, 72 h); higher = more inhibition; extreme values may be limits of the assay
In short: as §1

MKN1 (Gastric Carcinoma) [13] = assay: as above
In short: as §1
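Throughout, for Bliss excess, mean over the matrix: after 72 h of two-drug dosing.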

Row | SMILES | Bliss excess (NB13 (Neuroblastoma)) | Bliss excess [1] | Bliss excess [2] | Bliss excess [3] | Bliss excess (WM1552C (Melanoma)) | Bliss excess [4] | Bliss excess [5] | Bliss excess (769-P (Kidney Carcinoma)) | Bliss excess [6] | Bliss excess [7] | Bliss excess [8] | combination Emax [9] | Bliss excess [10] | Bliss excess (MKN1 (Gastric Carcinoma) [11]) | combination Emax [12] | combination Emax (MKN1 (Gastric Carcinoma) [13])
1 | COc1cccc(OCCCN)c1-c1cc(Nc2cnc(C#N)cn2)n[nH]1 [Prexasertib] + O=C(c1cc(Cc2n[nH]c(=O)c3ccccc23)ccc1F)N1CCN(C(=O)C2CC2)CC1 [Olaparib] (first compound max 1 µM, 7x7, partner max 10 µM) | -0.0317 | -0.101 | -0.105 | -0.0537 | -0.134 | -0.0174 | 0.0035 | -0.118 | -0.128 | -0.0473 | -0.0457 | 0.892 |  |  |  | 
2 | COc1cccc2c1C(=O)c1c(O)c3c(c(O)c1C2=O)C[C@@](O)(C(=O)CO)C[C@@H]3O[C@H]1C[C@H](N)[C@H](O)[C@H](C)O1 [Doxorubicin] + Cc1cc2ncnn2cc1Nc1ncc2c(n1)n(C1CCOCC1)c(=O)n2C [AZD7648] (first compound max 1 µM, 7x7, partner max 10 µM) | 0.0808 | 0.0125 | 0.0583 | -0.0307 | 0.0398 | 0.143 | 0.0122 | 0.0903 | -0.0534 | 0.0197 | 0.0335 | 0.746 |  |  |  | 
3 | CN(C)CCCOc1ccc(-c2ccc3ncc4c(c3c2)n(C2CCOCC2)c(=O)n4C)cn1 [AZD0156] + CCN(CCO)CCCOc1ccc2c(Nc3cc(CC(=O)Nc4cccc(F)c4)[nH]n3)ncnc2c1 [AZD2811] (first compound max 1 µM, 7x7, partner max 1 µM) | 0.0458 | -0.0776 | 0.0126 | -0.0143 | -0.0135 | -0.0135 | -0.0539 | -0.0343 | -0.04 | -0.0251 | -0.0064 | 0.332 |  |  |  | 
4 | Cc1c2c(nn1C)CSCc1cc(n(C)n1)CSc1cc(c3ccccc3c1)OCCCc1c(C(=O)O)n(C)c3c-2c(Cl)ccc13 [AZD5991] + CC1(C)CCC(CN2CCN(c3ccc(C(=O)NS(=O)(=O)c4ccc(NCC5CCOCC5)c([N+](=O)[O-])c4)c(Oc4cnc5[nH]ccc5c4)c3)CC2)=C(c2ccc(Cl)cc2)C1 [Venetoclax] (first compound max 1 µM, 7x7, partner max 1 µM) | 0.0393 | -0.0189 | 0.0262 | -0.0291 | -0.115 | 0.0375 | -0.0513 | -0.0328 | -0.014 | 0.159 | -0.037 | 0.886 |  |  |  | 
5 | COc1cccc(OCCCN)c1-c1cc(Nc2cnc(C#N)cn2)n[nH]1 [Prexasertib] + CN(C)CCCOc1ccc(-c2ccc3ncc4c(c3c2)n(C2CCOCC2)c(=O)n4C)cn1 [AZD0156] (first compound max 1 µM, 7x7, partner max 1 µM) | -0.0268 | -0.0994 | -0.0174 | -0.0231 | -0.0036 | -0.0171 | -0.0428 | 0.0193 | -0.0723 | -0.0142 | -0.0032 | 0.938 |  |  |  | 
6 | CC1(C)CCC(CN2CCN(c3ccc(C(=O)NS(=O)(=O)c4ccc(NCC5CCOCC5)c([N+](=O)[O-])c4)c(Oc4cnc5[nH]ccc5c4)c3)CC2)=C(c2ccc(Cl)cc2)C1 [Venetoclax] + C1CN(CCC1(C(=O)N[C@@H](CCO)C2=CC=C(C=C2)Cl)N)C3=NC=NC4=C3C=CN4 [Capivasertib] (first compound max 1 µM, 7x7, partner max 3 µM) | -0.0288 | -0.0707 | -0.04 | -0.0729 | -0.0834 | 0.0239 | -0.0513 | -0.0433 | -0.0268 | 0.0707 | -0.0511 | 0.506 |  |  |  | 
7 | NC1(C(=O)N[C@@H](CCO)c2ccc(Cl)cc2)CCN(c2ncnc3[nH]ccc23)CC1 [Capivasertib] + CC(C)n1c(=O)n(C)c2cnc3cc(F)c(-c4ccc(OCCCN5CCCCC5)nc4)cc3c21 [AZD1390] (first compound max 10 µM, 7x7, partner max 0.3 µM) | -0.0584 | -0.0711 |  | -0.0564 | -0.0474 | 0.0233 | -0.0625 | -0.0261 | -0.0456 | 0.0083 | -0.0529 |  | -0.0909 | -0.0379 | 0.273 | 0.39
8 | NC1(C(=O)N[C@@H](CCO)c2ccc(Cl)cc2)CCN(c2ncnc3[nH]ccc23)CC1 [Capivasertib] + CC(=O)c1c(C)c2cnc(Nc3ccc(N4CCNCC4)cn3)nc2n(C2CCCC2)c1=O [Palbociclib] (first compound max 10 µM, 7x7, partner max 10 µM) | -0.076 | -0.0304 |  | -0.0186 | 0.0025 | -0.0335 | -0.0267 | -0.0257 | -0.0886 | 0.0477 | -0.019 |  | -0.0365 | 0.0106 | 0.293 | 0.463
9 | NC1(C(=O)N[C@@H](CCO)c2ccc(Cl)cc2)CCN(c2ncnc3[nH]ccc23)CC1 [Capivasertib] + CCN(CCO)CCCOc1ccc2c(Nc3cc(CC(=O)Nc4cccc(F)c4)[nH]n3)ncnc2c1 [AZD2811] (first compound max 10 µM, 7x7, partner max 1 µM) | -0.007 | -0.0425 |  | -0.0261 | -0.0378 | 0.0487 | -0.0424 | -0.0139 | -0.0323 | 0.0225 | -0.029 |  | -0.0415 | -0.0067 | 0.426 | 0.531
10 | COc1nnc2ccc(N3CCC(c4ccc(OCCN5CCN(C)C(=O)[C@H]5C)cc4)CC3)nn12 [AZD5153] + Cn1cnc2c(F)c(Nc3ccc(Br)cc3Cl)c(C(=O)NOCCO)cc21 [Selumetinib] (first compound max 1 µM, 7x7, partner max 10 µM) | -0.0616 | -0.0338 |  | -0.0807 | -0.063 | 0.0219 | -0.0275 | -0.0261 | -0.0494 | -0.0043 | -0.0083 |  | -0.0121 | -0.0081 | 0.328 | 0.619
11 | COc1nnc2ccc(N3CCC(c4ccc(OCCN5CCN(C)C(=O)[C@H]5C)cc4)CC3)nn12 [AZD5153] + CCN(CCO)CCCOc1ccc2c(Nc3cc(CC(=O)Nc4cccc(F)c4)[nH]n3)ncnc2c1 [AZD2811] (first compound max 1 µM, 7x7, partner max 1 µM) | -0.0336 | -0.0236 |  | -0.0601 | -0.0615 | 0.0934 | -0.0214 | -0.0217 | -0.06 | 0.0175 | -0.0002 |  | 0.0001 | -0.0033 | 0.428 | 0.807
12 | NC1(C(=O)N[C@@H](CCO)c2ccc(Cl)cc2)CCN(c2ncnc3[nH]ccc23)CC1 [Capivasertib] + Cn1cnc2c(F)c(Nc3ccc(Br)cc3Cl)c(C(=O)NOCCO)cc21 [Selumetinib] (first compound max 10 µM, 7x7, partner max 10 µM) | -0.0062 | -0.0041 |  | -0.0397 | 0.036 | 0.0066 | 0.0258 | 0.0062 | -0.0404 | 0.0155 | 0.0186 |  | 0.0115 | 0.081 | 0.308 | 0.552
13 | NC1(C(=O)N[C@@H](CCO)c2ccc(Cl)cc2)CCN(c2ncnc3[nH]ccc23)CC1 [Capivasertib] + COc1nnc2ccc(N3CCC(c4ccc(OCCN5CCN(C)C(=O)[C@H]5C)cc4)CC3)nn12 [AZD5153] (first compound max 10 µM, 7x7, partner max 1 µM) | 0.0532 | -0.006 |  | 0.0019 | -0.0366 | 0.02 | -0.0555 | 0.055 | -0.0351 | -0.0195 | 0.0026 |  | -0.0002 | 0.0481 | 0.405 | 0.782
14 | COc1nnc2ccc(N3CCC(c4ccc(OCCN5CCN(C)C(=O)[C@H]5C)cc4)CC3)nn12 [AZD5153] + C=CCn1c(=O)c2cnc(Nc3ccc(N4CCN(C)CC4)cc3)nc2n1-c1cccc(C(C)(C)O)n1 [AZD1775] (first compound max 1 µM, partner max 1 µM) | -0.0645 | -0.0322 |  | -0.0698 | -0.0776 | 0.0311 | -0.0783 | -0.0321 | 0.0026 | 0.0269 | -0.0753 |  | -0.0299 | 0.0363 | 0.503 | 0.926
15 | Cn1cnc2c(F)c(Nc3ccc(Br)cc3Cl)c(C(=O)NOCCO)cc21 [Selumetinib] + C=CCn1c(=O)c2cnc(Nc3ccc(N4CCN(C)CC4)cc3)nc2n1-c1cccc(C(C)(C)O)n1 [AZD1775] (first compound max 10 µM, partner max 1 µM) | -0.0591 | 0.0069 |  | 0.0283 | -0.0674 | -0.0196 | -0.0002 | -0.0944 | -0.0589 | -0.0174 | -0.0198 |  | -0.0536 | -0.0326 | 0.217 | 0.782
16 | COc1nnc2ccc(N3CCC(c4ccc(OCCN5CCN(C)C(=O)[C@H]5C)cc4)CC3)nn12 [AZD5153] + CC1(C)CCC(CN2CCN(c3ccc(C(=O)NS(=O)(=O)c4ccc(NCC5CCOCC5)c([N+](=O)[O-])c4)c(Oc4cnc5[nH]ccc5c4)c3)CC2)=C(c2ccc(Cl)cc2)C1 [Venetoclax] (first compound max 1 µM, 7x7, partner max 1 µM) | -0.137 | -0.0137 |  | -0.0043 | -0.0691 | 0.0181 | -0.0572 | -0.0457 | -0.0522 | -0.0406 | -0.0671 |  | -0.0317 | -0.0062 | 0.317 | 0.57
17 | CC(=O)c1c(C)c2cnc(Nc3ccc(N4CCNCC4)cn3)nc2n(C2CCCC2)c1=O [Palbociclib] + CC1(C)CCC(CN2CCN(c3ccc(C(=O)NS(=O)(=O)c4ccc(NCC5CCOCC5)c([N+](=O)[O-])c4)c(Oc4cnc5[nH]ccc5c4)c3)CC2)=C(c2ccc(Cl)cc2)C1 [Venetoclax] (first compound max 10 µM, 7x7, partner max 1 µM) | -0.103 | -0.0237 |  | -0.0613 | -0.0334 | -0.0162 | -0.0345 | -0.0158 | -0.0502 | 0.0325 | -0.0248 |  | -0.0463 | -0.0394 | 0.0903 | 0.249
